Results: publication PMC6177136, “Hybrid topoisomerase I and HDAC inhibitors as dual action anticancer agents” (PLoS ONE, 2018)

Columns and labels:
NCI-H460 NSCLC cells = assay: FACS analysis of cell cycle and apoptosis; format: cell-based, Human; conditions: 72 h at own IC80 dose, PI staining; for Sub-G0/1 (%): apoptosis
[1] = test system: primary malignant pleural mesothelioma (MPM) cell lines; assay: Primary malignant pleural mesothelioma (MPM) cell lines (summary); format: cell-based; conditions: Homo sapiens, span over the cell line panel, 72 h, read-out: IC50 across primary mesothelioma cell lines (Table 7)
p53 = assay: Western blot, p53 in NCI-H460 cells; format: cell-based, Human; conditions: 24 h; SAHA 5 μM, SN38 0.05 μM, 3d 0.125–0.2–0.5 μM
Protocol: (§1) The supernatant, containing the total proteins extracts, were transferred in new vials. The protein concentration was measured by Bradford Protein Assay. Equal amounts of proteins for each sample were then resolved by SDS-PAGE and loaded on 10–12% polyacrilamide gels. The proteins were then transferred on nitrocellulose membranes. Molecular weights were estimated based upon the relative migration with molecular weight protein markers.
(§2) The non-specific binding was blocked by incubation of membranes in TBS-tween (25 mM Tris, 150 mM NaCl, 0.1% Tween 20) with 5% nonfat dry milk (BIORAD, Milan) for 60 minutes. Subsequently, the membrane was incubated overnight with primary antibodies: anti-Histone H4 (Millipore, 1:500), anti-acetyl-H4 (Santa Cruz, 1:1000) anti-p21 (Santa Cruz, 1:1000), anti-acetyl-tubulin (abcam, 1:1000), anti-α-tubulin (Sigma, 1:5000), anti β-actin (Sigma, 1:5000) and anti-Topoisomerase 1 (Santa Cruz, 1:500). After three washes with TBST blots were incubated with HRP-coniugated secondary anti-mouse and anti-rabbit (Santa Cruz, 1:5000) 1 hour at room temperature. After three washes with TBST the blots were developed with ECL substrate (GE Healthcare) and chemiluminescence detected by ChemiDoc Imaging System (Biorad). The optical density of the protein bands detected by western blotting was normalized on α -tubulin levels and analyzed by ChemiDoc software (Biorad).
(§3) Cells were lysed in 0.5% NP-40 and 40 μg of total proteins were loaded on NuPAGE 4–12% (Invitrogen), transferred to a nitrocellulose paper and probed with specific antibodies.

CycD1 = assay: Western blot, CycD1 in NCI-H460 cells; format: cell-based, Human; conditions: 24 h; SAHA 5 μM, SN38 0.05 μM, 3d 0.125–0.2–0.5 μM
Protocol: as §1, §2, §3

RPMI-8226 = assay: Cytotoxicity assay (MTT, 72 h) RPMI-8226; format: cell-based; conditions: Homo sapiens, read-out: IC50 ± SD RPMI-8226
Protocol: (§4) Human tumor cells were seeded in 96-well cell culture plastic plates, allowed to attach, and exposed to scalar concentrations of the test compounds.

H2A.X = assay: Western blot, H2A.X induction in NCI-H460 cells; format: cell-based, Human; conditions: 24 h; SAHA 5 μM, SN38 0.05 μM, 3d 0.125–0.2–0.5 μM
Protocol: as §1, §2, §3

p21 = assay: Western blot, p21 in NCI-H460 cells; format: cell-based, Human; conditions: 24 h; SAHA 5 μM, SN38 0.05 μM, 3d 0.125–0.2–0.5 μM
Protocol: as §1
as §2, with “software (Biorad). […]” for “software (Biorad).”

p16 = assay: Western blot, p16 in NCI-H460 cells; format: cell-based, Human; conditions: 24 h; SAHA 5 μM, SN38 0.05 μM, 3d 0.125–0.2–0.5 μM
Protocol: as §1, §2, §3

OCI-LY3 = assay: Cytotoxicity assay (MTT, 72 h) OCI-LY3; format: cell-based, Human; conditions: for IC50: Homo sapiens, OCI-Ly3, 72 h, MTT assay, read-out: IC50 ± SD OCI-LY3
Protocol: as §4

L-428 = assay: Cytotoxicity assay (MTT, 72 h) L-428; format: cell-based, Human; conditions: for IC50: Homo sapiens, L-428, 72 h, MTT assay, read-out: IC50 ± SD L-428
Protocol: as §4

DU145 = assay: Cytotoxicity assay (SRB, 72 h) DU145; format: cell-based, Human; conditions: Homo sapiens, DU-145, read-out: IC50 ± SD DU145
HT29 = assay: Cytotoxicity assay (SRB, 72 h) HT29; format: cell-based, Human; conditions: Homo sapiens, HT-29, read-out: IC50 ± SD HT29
MAVER-2 = assay: Cytotoxicity assay (MTT, 72 h) MAVER-2; format: cell-based, Human; conditions: Homo sapiens, read-out: IC50 ± SD MAVER-2
MM317 = assay: Cytotoxicity assay, primary mesothelioma MM317; format: cell-based, Human; conditions: Homo sapiens; epithelioid, 72 h, SBR assay; read-out: IC50 ± SD MM317
[2] = test system: human epithelioid mesothelioma MM473-Luc; assay: In vivo antitumor activity, orthotopic MM473-Luc xenograft; conditions: i.v. 35 mg/kg, q4dx3, treatment from day 15
DG-75 = assay: Cytotoxicity assay (MTT, 72 h) DG-75; format: cell-based, Human
KM-H2 = assay: Cytotoxicity assay (MTT, 72 h) KM-H2; format: cell-based, Human
HeLa = assay: Cytotoxicity assay (SRB, 72 h) HeLa; format: cell-based, Human; conditions: Homo sapiens, HeLa, read-out: IC50 ± SD HeLa
MM432 = assay: Cytotoxicity assay, primary mesothelioma MM432; format: cell-based, Human; conditions: Homo sapiens; sarcomatoid, 72 h, SBR assay; read-out: IC50 ± SD MM432
A431 = assay: Cytotoxicity assay (SRB, 72 h) A431; format: cell-based, Human; conditions: Homo sapiens, A-431, read-out: IC50 ± SD A431
U-2932 = assay: Cytotoxicity assay (MTT, 72 h) U-2932; format: cell-based, Human; conditions: Homo sapiens, U2932, read-out: IC50 ± SD U-2932
[3] = test system: hematologic cancer cell lines; assay: Screening on hematologic cancer cell lines (summary); format: cell-based; conditions: Homo sapiens, read-out: IC50 across hematologic cancer cell lines (Tables 5 and 6); span over the cell line panel, 72 h, MTT assay
HepG2 = assay: Cytotoxicity assay (SRB, 72 h) HepG2; format: cell-based, Human; conditions: Homo sapiens, HepG2, read-out: IC50 ± SD HepG2
[4] = test system: series of human tumor cell lines; assay: Antiproliferative activity, series of human tumor cell lines (summary); format: cell-based; conditions: span over the cell line panel, 72 h, SRB assay, read-out: IC50 across the human tumor cell lines of Table 3
A2780-Dx = assay: Cytotoxicity assay (SRB, 72 h) A2780-Dx; format: cell-based, Human; conditions: for IC50: Homo sapiens, A2780/DX, 72 h, SRB assay, multidrug-resistant ovarian carcinoma, read-out: IC50 ± SD A2780-Dx
NB4 = assay: Cytotoxicity assay (MTT, 72 h) NB4; format: cell-based, Human; conditions: Homo sapiens, NB-4, read-out: IC50 ± SD NB4
JECO-1 = assay: Cytotoxicity assay (MTT, 72 h) JECO-1; format: cell-based, Human
MM487 = assay: Cytotoxicity assay, primary mesothelioma MM487; format: cell-based, Human; conditions: Homo sapiens, MM487; biphasic, 72 h, SBR assay; read-out: IC50 ± SD MM487
MINO = assay: Cytotoxicity assay (MTT, 72 h) MINO; format: cell-based, Human
Capan 1 = assay: Cytotoxicity assay (SRB, 72 h) Capan 1; format: cell-based, Human; conditions: Homo sapiens, CAPAN-1, read-out: IC50 ± SD Capan 1
MM288 = assay: Cytotoxicity assay, primary mesothelioma MM288; format: cell-based, Human; conditions: Homo sapiens; epithelioid, 72 h, SBR assay; read-out: IC50 ± SD MM288
NCI-H460 = assay: Cytotoxicity assay (SRB, 72 h) NCI-H460; format: cell-based, Human; conditions: Homo sapiens, NCI-H460; 72 h, SRB assay; read-out: IC50 ± SD NCI-H460
A2780 = assay: Cytotoxicity assay (SRB, 72 h) A2780; format: cell-based, Human; conditions: Homo sapiens, A2780, read-out: IC50 ± SD A2780
[5] = meaning not defined in the paper, given beside >10 μM

IC50 [1] [nM]	Structure (SMILES)	G0/1 (%) (NCI-H460 NSCLC cells)	G2/M (%) (NCI-H460 NSCLC cells)	S (%) (NCI-H460 NSCLC cells)	Sub-G0/1 (%) (NCI-H460 NSCLC cells)	IC50 (OCI-LY3) [nM]	IC50 (L-428) [nM]	IC50 (DU145) [nM]	IC50 (HT29) [nM]	IC50 (HeLa) [nM]	IC50 (A431) [nM]	IC50 (HepG2) [nM]	IC50 (A2780-Dx) [nM]	IC50 (Capan 1) [nM]	IC50 (NCI-H460) [nM]	IC50 (A2780) [nM]	other results
4000 to 12000	O=C(CCCCCCC(=O)Nc1ccccc1)NO [SAHA, suberoylanilide hydroxamic acid]	65.2	23.1	11.7	1.8	990 ± 300	2300 ± 500										p53 activation (p53): less effective in p53 up-regulation; CycD1 regulation (CycD1): up-regulated; IC50 (RPMI-8226): 1980 ± 500 nM; H2A.X induction (DNA damage) (H2A.X): completely ineffective in H2A.X induction; expression of p21 (p21): induction of p21; P16 regulation (p16): down
> 7000	CCc1c2c(nc3ccc(OC(=O)N4CCC(N5CCCCC5)CC4)cc13)-c1cc3c(c(=O)n1C2)COC(=O)[C@]3(O)CC [Irinotecan]	7.9	3.2	89.0	2.7	> 10000	> 10000	2800 ± 70	4800 ± 400	5800 ± 600	4100 ± 100	4000 ± 800	20100 ± 2900	1500 ± 100	2400 ± 100	3800 ± 500	IC50 (MAVER-2): 740 ± 100 nM; IC50 (MM317): 7000 ± 1000 nM; antitumor activity (BLI signal, average radiance) [2]: only a marginal antitumor effect; IC50 (DG-75; Homo sapiens, DG-75, 72 h, MTT assay, read-out: IC50 ± SD DG-75): > 10000 nM; percentage in parentheses after IC50 >10, DG-75 (DG-75; [5]): 0%; IC50 (KM-H2; Homo sapiens, KM-H2, 72 h, MTT assay, read-out: IC50 ± SD KM-H2): > 10000 nM; percentage in parentheses after IC50 >10, KM-H2 (KM-H2; [5]): 12%; IC50 (MM432): 10000 ± 2000 nM; IC50 (U-2932): 4400 ± 800 nM; IC50 [3]: > 10000 nM; IC50 [4]: > 1500 nM; IC50 (NB4): 1000 ± 300 nM; IC50 (JECO-1; Homo sapiens, 72 h, MTT assay, read-out: IC50 ± SD JECO-1): > 10000 nM; percentage in parentheses after IC50 >10, JECO-1 (JECO-1; [5]): 48%; IC50 (MM487): 9400 ± 700 nM; percentage in parentheses after IC50 >10, OCI-LY3 (OCI-LY3; [5]): 0%; IC50 (MINO; Homo sapiens, MINO, 72 h, MTT assay, read-out: IC50 ± SD MINO): > 10000 nM; percentage in parentheses after IC50 >10, MINO (MINO; [5]): 36%; percentage in parentheses after IC50 >10, L-428 (L-428; [5]): 0%; IC50 (MM288): 14900 ± 2000 nM
	CC[C@@]1(O)C(=O)OCc2c1cc1n(c2=O)Cc2c-1nc1ccccc1c2C=NOCCCCCCC(=O)NO [Compound 3c, 7-(camptothecin-7-ylmethyleneaminooxy)-heptanoic acid hydroxyamide]							29 ± 1	45 ± 10	2400 ± 500	26 ± 1	680 ± 200	65 ± 10	43 ± 3	198 ± 180	38 ± 8	RI (Resistance Index) (A2780-Dx; A2780-Dx versus A2780): 1.7
